In the supplement of paper PMC10307832:

Tests used:
Experiment in all cases: relative viability (nuclei count vs DMSO), 5 days (fraction); higher = more cells survive
[1] = compound: C1CNCCC1C2=CC(=NN2)C3=CC=NC=C3 + CC(=O)c1c(C)c2cnc(Nc3ccc(N4CCNCC4)cn3)nc2n(C2CCCC2)c1=O [Palbociclib] (partner 0.5 µM)
Procedure, shortened: (§1)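 One day after seeding in 1536-well plates, lung cancer cell lines were dosed by pin tool. Dosing was either single-drug or a fixed anchor-drug dose plus five library-drug doses (not always all listed) in √10 steps. After 5 days, nuclei were stained in one fix-and-stain step and counted on 4× images, and relative viability is the nuclei count of treated wells over that of vehicle wells, given as the median of duplicate plates.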

[2] = compound: C[C@@H](N)c1ccc(C(=O)Nc2ccnc3[nH]ccc23)cc1 + CCNC(=O)c1noc(-c2cc(C(C)C)c(O)cc2O)c1-c1ccc(CN2CCOCC2)cc1 [Luminespib] (partner 0.01 µM)
Procedure, shortened: as §1

[3] = compound: C[C@@H](N)c1ccc(C(=O)Nc2ccnc3[nH]ccc23)cc1 + Nc1ncn([C@H]2C[C@H](O)[C@@H](CO)O2)c(=O)n1 [Decitabine] (partner 2 µM)
Procedure, shortened: as §1

[4] = compound: O[C@H]1CC[C@H](Nc2ncc3nc(Nc4c(F)cc(F)cc4F)n([C@H]4CCOC4)c3n2)CC1 [Tanzisertib] + CC(=O)c1c(C)c2cnc(Nc3ccc(N4CCNCC4)cn3)nc2n(C2CCCC2)c1=O [Palbociclib] (partner 0.5 µM)
Procedure, shortened: as §1

## UMC-11
[1]; first compound 0.08 µM
  relative viability: 0.317
[1]; first compound 0.8 µM
  relative viability: 0.343
[1]; first compound 2.53 µM
  relative viability: 0.325
[1]; first compound 8 µM
  relative viability: 0.333
[2]; first compound 0.04 µM
  relative viability: 1.08
[2]; first compound 0.1265 µM
  relative viability: 1.06
[2]; first compound 0.4 µM
  relative viability: 1.04
[2]; first compound 1.265 µM
  relative viability: 0.989
[2]; first compound 4 µM
  relative viability: 0.826
[3]; first compound 0.1265 µM
  relative viability: 0.608
[3]; first compound 0.4 µM
  relative viability: 0.604
[3]; first compound 1.265 µM
  relative viability: 0.481
[3]; first compound 4 µM
  relative viability: 0.324
[4]; first compound 0.08 µM
  relative viability: 0.346
[4]; first compound 0.253 µM
  relative viability: 0.285
[4]; first compound 0.8 µM
  relative viability: 0.319
[4]; first compound 2.53 µM
  relative viability: 0.325
[4]; first compound 8 µM
  relative viability: 0.355
